# Measured values: US9877918B2, “Long-lasting controlled-release liposome composition and method for producing same” (TERUMO KABUSHIKI KAISHA, priority 2011, dated 2018)
# Structures can show the parent of a compound that is named as a salt.
# Test: Bupivacaine hydrochloride retention in the administration site after subcutaneous administration
# Assay type: in vivo
# Details: rat, SC 3.5 mg/kg, four hours after the administration
# Method: (6) Concentration of Bupivacaine Hydrochloride in Tissue (mg/mL): Sampled tissue was treated, and, for a supernatant obtained finally by centrifugation, absorbance at 210 nm was determined by high performance liquid chromatography using a UV-visible absorptiometer, to thereby measure the concentration of bupivacaine hydrochloride in the tissue.
# The bupivacaine hydrochloride liposome preparation prepared in Preparation Example 16 and bupivacaine hydrochloride used alone were subjected to a pharmacokinetic test. The liposome preparation and bupivacaine hydrochloride used alone were administered subcutaneously into a back part of a rat in respective doses as set forth in Table 11 while the doses are set as the amount of bupivacaine hydrochloride. After the lapse of 1, 24, 72, 120, and 168 hours from the administration of the bupivacaine hydrochloride liposome composition, and after the lapse of 0.5, 4, and 24 hours from the administration of bupivacaine hydrochloride used alone, a subcutaneous tissue of the back part in the administration site was sampled and subjected to a homogenizing treatment. […]
structure (smiles),measurement,value
"CCCCN1CCCCC1C(=O)Nc1c(C)cccc1C (stereo not shown) [bupivacaine hydrochloride used alone, Bupivacaine Hydrochloride]",retention rate in the administration site,below 1%
